Data reported in patent publication US11987588B2, “Modulators of the beta-3 adrenergic receptor useful for the treatment or prevention of heart failure and disorders related thereto” (Arena Pharmaceuticals, Inc., priority 2017, dated 2024).

Target: Beta-3 Adrenergic Receptor (Homo sapiens (Human), UniProt P13945)
Assay: Homogeneous Time-Resolved Fluorescence (HTRF) cAMP antagonist assay, IC50 determination
Type: cell-based
Details: CHO-K1 cells stably expressing recombinant receptor, isoproterenol at EC90
Procedure: HTRF cAMP assays were performed according to manufacturer's instructions (Cisbio, cAMP Dynamic 2 Assay Kit; #62AM4PEJ). CHO-K1 cells stably expressing recombinant receptor were harvested and suspended in warm PBS to make a 300,000 cells/mL stock. This cell suspension was dispensed into 384 well assay plates (PerkinElmer ProxiPlate #6008280) at 5 μL per well (1500 cells/well) along with a cAMP standard curve.
Compounds were dissolved and serially diluted (5-fold) in DMSO to generate a 10-point dose response stock. The stock was then diluted 100-fold in assay buffer (PBS containing 1 mM IBMX) before a volume of 2.5 μL was added to the cells (the final, top concentration of compound in the dose-response is typically 10 or 100 μM). After a brief incubation, 2.5 μL of isoproterenol stock, prepared at a concentration 4 times its EC90 at the receptor of interest, was added to the wells. The EC90 for isoproterenol, a beta-adrenergic agonist, was determined in separate experiments using standard methods to measure agonist potencies.
Following a 1-hour incubation at room temperature, 5 μL of cAMP-D2 Reagent diluted in Lysis Buffer was added to each well followed by 5 μL of Cryptate Reagent. Plates were further incubated at room temperature for 1 hour prior to reading. Time resolved fluorescence measurements were collected on a suitable, HTRF-capable plate reader.
Counts from the plate reader were fit to the cAMP standard curve on the assay plate in order to determine cAMP concentrations in each well, and these values were used to construct dose-response curves to obtain IC50 values.

Chain of Beta-3 Adrenergic Receptor (P13945 whole entry, species assumed): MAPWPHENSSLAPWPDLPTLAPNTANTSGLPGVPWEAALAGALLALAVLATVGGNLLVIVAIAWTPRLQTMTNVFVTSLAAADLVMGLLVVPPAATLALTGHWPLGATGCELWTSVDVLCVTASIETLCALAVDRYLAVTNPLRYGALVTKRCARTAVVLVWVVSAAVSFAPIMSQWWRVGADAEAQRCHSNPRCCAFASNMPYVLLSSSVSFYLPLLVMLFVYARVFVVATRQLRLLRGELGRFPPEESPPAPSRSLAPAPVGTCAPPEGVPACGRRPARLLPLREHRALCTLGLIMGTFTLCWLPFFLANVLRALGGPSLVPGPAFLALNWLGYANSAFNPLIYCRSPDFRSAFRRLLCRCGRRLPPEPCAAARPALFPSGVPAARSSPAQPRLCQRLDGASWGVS

IC50	SMILES
2180 nM	CC(=O)NS(=O)(=O)c1cccc(OC[C@@H](O)CNC2COC3(CCN(S(=O)(=O)c4ccc5ccccc5c4)CC3)C2)c1 (stereo partly drawn) [Compound 318, N-(3-((2S)-2-hydroxy-3-(8-(naphthalen-2-ylsulfonyl)-1-oxa-8-azaspiro[4.5]decan-3-ylamino)propoxy)phenylsulfonyl)acetamide]
7.22 nM	CNS(=O)(=O)c1cccc(OC[C@@H](O)CN[C@@H]2COC3(CCN(S(=O)(=O)c4cccc(-c5cc[nH]n5)c4)CC3)C2)c1 [Compound 295, 3-((S)-3-((S)-8-(3-(1H-pyrazol-3-yl)phenylsulfonyl)-1-oxa-8-azaspiro[4.5]decan-3-ylamino)-2-hydroxypropoxy)-N-methylbenzenesulfonamide]
1010 nM	CN(C)CCCNS(=O)(=O)c1cccc(OC[C@@H](O)CNC2COC3(CCN(S(=O)(=O)c4ccc5ccccc5c4)CC3)C2)c1 (stereo partly drawn) [Compound 317, N-(3-(dimethylamino)propyl)-3-((2S)-2-hydroxy-3-(8-(naphthalen-2-ylsulfonyl)-1-oxa-8-azaspiro[4.5]decan-3-ylamino)propoxy)benzenesulfonamide]
121 nM	CCn1cc(S(=O)(=O)N2CCC3(CC2)C[C@@H](NC[C@H](O)COc2cccc(S(=O)(=O)NC)c2)CO3)c(=O)c2cccc(C)c21 [Compound 545, 3-((S)-3-((R)-8-(1-ethyl-8-methyl-4-oxo-1,4-dihydroquinolin-3-ylsulfonyl)-1-oxa-8-azaspiro[4.5]decan-3-ylamino)-2-hydroxypropoxy)-N-methylbenzenesulfonamide]
47.8 nM	CNS(=O)(=O)c1cccc(OC[C@@H](O)CNC2COC3(CCN(S(=O)(=O)c4cccc(-c5cncc(C#N)c5)c4)CC3)C2)c1 (stereo partly drawn) [Compound 370, 3-((2S)-3-(8-(3-(5-cyanopyridin-3-yl)phenylsulfonyl)-1-oxa-8-azaspiro[4.5]decan-3-ylamino)-2-hydroxypropoxy)-N-methylbenzenesulfonamide]
15.7 nM	CNS(=O)(=O)c1cccc(OC[C@@H](O)CNC2COC3(CCN(S(=O)(=O)c4cc(-c5ccc(CN)cc5)ccc4OC)CC3)C2)c1 (stereo partly drawn) [Compound 357, 3-((2S)-3-(8-(4′-(aminomethyl)-4-methoxybiphenyl-3-ylsulfonyl)-1-oxa-8-azaspiro[4.5]decan-3-ylamino)-2-hydroxypropoxy)-N-methylbenzenesulfonamide]
15.7 nM	CNS(=O)(=O)c1cccc(OC[C@@H](O)CN[C@@H]2COC3(CCN(S(=O)(=O)c4cncc(-c5ccc(CN)cc5)c4)CC3)C2)c1 [Compound 374, 3-((S)-3-((S)-8-(5-(4-(aminomethyl)phenyl)pyridin-3-ylsulfonyl)-1-oxa-8-azaspiro[4.5]decan-3-ylamino)-2-hydroxypropoxy)-N-methylbenzenesulfonamide]
115 nM	CNS(=O)(=O)c1cccc(OC[C@@H](O)CN[C@H]2COC3(CCN(c4nccc(Cc5ccccc5)n4)CC3)C2)c1 [Compound 573, 3-((S)-3-((R)-8-(4-benzylpyrimidin-2-yl)-1-oxa-8-azaspiro[4.5]decan-3-ylamino)-2-hydroxypropoxy)-N-methylbenzenesulfonamide]
38.1 nM	CNS(=O)(=O)c1cccc(OC[C@@H](O)CN[C@H]2COC3(CCN(S(=O)(=O)c4cnc5c(c4)COCC5)CC3)C2)c1 [Compound 488, 3-((S)-3-((R)-8-(7,8-dihydro-5H-pyrano[4,3-b]pyridin-3-ylsulfonyl)-1-oxa-8-azaspiro[4.5]decan-3-ylamino)-2-hydroxypropoxy)-N-methylbenzenesulfonamide]
411 nM	CNS(=O)(=O)c1cccc(OC[C@@H](O)CN[C@H]2COC3(CCN(c4nccc(OC)n4)CC3)C2)c1 [Compound 568, 3-((S)-2-hydroxy-3-((R)-8-(4-methoxypyrimidin-2-yl)-1-oxa-8-azaspiro[4.5]decan-3-ylamino)propoxy)-N-methylbenzenesulfonamide]

Further lines, the compound ahead of its results:

SMILES	IC50
O=S(=O)(NC(CO)CO)c1cccc(OC[C@@H](O)CNC2COC3(CCN(S(=O)(=O)c4ccc5ccccc5c4)CC3)C2)c1 (stereo partly drawn) [Compound 95, N-(1,3-dihydroxypropan-2-yl)-3-((2S)-2-hydroxy-3-(8-(naphthalen-2-ylsulfonyl)-1-oxa-8-azaspiro[4.5]decan-3-ylamino)propoxy)benzenesulfonamide]	159 nM
CCNS(=O)(=O)c1cccc(OC[C@@H](O)CNC2COC3(CCN(S(=O)(=O)c4ccc(-c5ccccc5)s4)CC3)C2)c1 (stereo partly drawn) [Compound 233, N-ethyl-3-((2S)-2-hydroxy-3-(8-(5-phenylthiophen-2-ylsulfonyl)-1-oxa-8-azaspiro[4.5]decan-3-ylamino)propoxy)benzenesulfonamide]	156 nM
CNS(=O)(=O)c1cccc(OC[C@@H](O)CNC2COC3(CCN(S(=O)(=O)c4cccc(-c5cnc(OC)nc5)c4)CC3)C2)c1 (stereo partly drawn) [Compound 108, 3-((2S)-2-hydroxy-3-(8-(3-(2-methoxypyrimidin-5-yl)phenylsulfonyl)-1-oxa-8-azaspiro[4.5]decan-3-ylamino)propoxy)-N-methylbenzenesulfonamide]	13.4 nM
CCC(CC)CNS(=O)(=O)c1cccc(OC[C@@H](O)CNC2COC3(CCN(S(=O)(=O)c4ccc5ccccc5c4)CC3)C2)c1 (stereo partly drawn) [Compound 97, N-(2-ethylbutyl)-3-((2S)-2-hydroxy-3-(8-(naphthalen-2-ylsulfonyl)-1-oxa-8-azaspiro[4.5]decan-3-ylamino)propoxy)benzenesulfonamide]	127 nM
CNS(=O)(=O)c1cccc(OC[C@@H](O)CN[C@H]2COC3(CCN(S(=O)(=O)c4ccc5c(c4)CCCO5)CC3)C2)c1 [Compound 184, 3-((S)-3-((R)-8-(chroman-6-ylsulfonyl)-1-oxa-8-azaspiro[4.5]decan-3-ylamino)-2-hydroxypropoxy)-N-methylbenzenesulfonamide]	11.9 nM
CNS(=O)(=O)c1cccc(OC[C@@H](O)CNC2COC3(CCN(S(=O)(=O)c4cccc(-c5cnn(CCO)c5)c4)CC3)C2)c1 (stereo partly drawn) [Compound 70, 3-((2S)-2-hydroxy-3-(8-(3-(1-(2-hydroxyethyl)-1H-pyrazol-4-yl)phenylsulfonyl)-1-oxa-8-azaspiro[4.5]decan-3-ylamino)propoxy)-N-methylbenzenesulfonamide]	25.7 nM
CNS(=O)(=O)c1cccc(OC[C@@H](O)CNC2COC3(CCN(S(=O)(=O)c4ccc5c(c4)CCC(C)(C)O5)CC3)C2)c1 (stereo partly drawn) [Compound 127, 3-((2S)-3-(8-(2,2-dimethylchroman-6-ylsulfonyl)-1-oxa-8-azaspiro[4.5]decan-3-ylamino)-2-hydroxypropoxy)-N-methylbenzenesulfonamide]	14.9 nM
CN(C)S(=O)(=O)c1cccc(OC[C@@H](O)CNC2COC3(CCN(S(=O)(=O)c4ccc(-c5ccccc5)s4)CC3)C2)c1 (stereo partly drawn) [Compound 255, 3-((2S)-2-hydroxy-3-(8-(5-phenylthiophen-2-ylsulfonyl)-1-oxa-8-azaspiro[4.5]decan-3-ylamino)propoxy)-N,N-dimethylbenzenesulfonamide]	55.1 nM
CNS(=O)(=O)c1cccc(OC[C@@H](O)CNC2COC3(CCN(S(=O)(=O)c4c(C)noc4C)CC3)C2)c1 (stereo partly drawn) [Compound 188, 3-((2S)-3-(8-(3,5-dimethylisoxazol-4-ylsulfonyl)-1-oxa-8-azaspiro[4.5]decan-3-ylamino)-2-hydroxypropoxy)-N-methylbenzenesulfonamide]	18.1 nM
COCCN(C)S(=O)(=O)c1cccc(OC[C@@H](O)CNC2COC3(CCN(S(=O)(=O)c4ccc5ccccc5c4)CC3)C2)c1 (stereo partly drawn) [Compound 60, 3-((2S)-2-hydroxy-3-(8-(naphthalen-2-ylsulfonyl)-1-oxa-8-azaspiro[4.5]decan-3-ylamino)propoxy)-N-(2-methoxyethyl)-N-methylbenzenesulfonamide]	58.8 nM
CNS(=O)(=O)c1cccc(OC[C@@H](O)CNC2COC3(CCN(S(=O)(=O)c4cc(Br)cc5c4OCC5)CC3)C2)c1 (stereo partly drawn) [Compound 260, 3-((2S)-3-(8-(5-bromo-2,3-dihydrobenzofuran-7-ylsulfonyl)-1-oxa-8-azaspiro[4.5]decan-3-ylamino)-2-hydroxypropoxy)-N-methylbenzenesulfonamide]	20.3 nM
Cc1cc(S(=O)(=O)N2CCC3(CC2)CC(NC[C@H](O)COc2cccc(S(=O)(=O)N(C)C)c2)CO3)ccc1Br (stereo partly drawn) [Compound 249, 3-((2S)-3-(8-(4-bromo-3-methylphenylsulfonyl)-1-oxa-8-azaspiro[4.5]decan-3-ylamino)-2-hydroxypropoxy)-N,N-dimethylbenzenesulfonamide]	29.5 nM
CNS(=O)(=O)c1cccc(OC[C@@H](O)CNC2COC3(CCN(S(=O)(=O)c4ccc(C#N)c(Cl)c4)CC3)C2)c1 (stereo partly drawn) [Compound 239, 3-((2S)-3-(8-(3-chloro-4-cyanophenylsulfonyl)-1-oxa-8-azaspiro[4.5]decan-3-ylamino)-2-hydroxypropoxy)-N-methylbenzenesulfonamide]	22.3 nM
CCNS(=O)(=O)c1cccc(OC[C@@H](O)CNC2COC3(CCN(S(=O)(=O)c4cccc(Cl)c4)CC3)C2)c1 (stereo partly drawn) [Compound 224, 3-((2S)-3-(8-(3-chlorophenylsulfonyl)-1-oxa-8-azaspiro[4.5]decan-3-ylamino)-2-hydroxypropoxy)-N-ethylbenzenesulfonamide]	33.1 nM
